The format of data set [1] is physicochemical. The conditions noted are these: solution in propylene glycol, pH 3 to 7, 50° C. for 1M and 40° C./75% RH for 6M. The protocol: To evaluate the stability of Nebivolol in suitable liquid vehicle or solubilizer at different pH conditions, pH stability study was performed using 0.1N HCL/0.1N NaOH for pH adjustment. Propylene glycol was used as solubilizer to dissolve Nebivolol to prepare the stock solution. The stock solution was added to water and adjusted the pH with 0.1N HCL/0.1N NaOH at different pH ranging from 3 to 7.

The format of data set [2] is physicochemical. The conditions noted are these: open air exposure, 50° C. for 2 Weeks and 40° C./7.5% RH for 1 month. As for the experimental part: Drug-Excipient compatibility study was carried with excipients such as mannitol, maltitol, dextrates, povidone, methyl paraben, propyl paraben, citric acid, sodium citrate, sodium saccharin. The study was carried out in clear glass vials with open air exposure at stress conditions 50° C. for 2 Weeks and 40° C./[…] (relative humidity) for 1 month.

These results are taken from patent publication US12569434B2, “Formulations of Nebivolol” (EXTROVIS AG, priority 2020, dated 2026).

The structures appear in SMILES notation.

Regarding `Cl.OC(CNCC(O)C1CCc2cc(F)ccc2O1)C1CCc2cc(F)ccc2O1` (racemic) [Nebivolol HCl, (1RS,1′RS)-1,1′-[(2RS,2′SR)-bis(6-fluoro-3,4-dihydro-2H-1-benzopyran-2-yl)]-2,2′-iminodiethanol hydrochloride], in data set [1], the “Stability of Nebivolol” value is given as “stable” and the “desfluoro Nebivolol impurity” value is listed as “within the specification limits”. For the same compound, in data set [2], the “Stability of Nebivolol with excipients” value is recorded as “stable” and the desfluoro impurity result was “within the specification limits”.
